Measured values taken from patent publication US20080051456A1, “Glycine Reuptake Inhibitors for Treatment of Drug Dependence” (priority 2005, published 2008).
Values joined by “and” are separate entries in the source; they are usually repeats but may differ in a detail not shown here. Identical values can stand only once.

What was measured:
GlyT2 protein = target: T1, GlyT2 protein (Homo sapiens, UniProt Q9Y345); conditions: relative to main action on GlyT1; cited from earlier work
T1 sequence (Q9Y345 1-797): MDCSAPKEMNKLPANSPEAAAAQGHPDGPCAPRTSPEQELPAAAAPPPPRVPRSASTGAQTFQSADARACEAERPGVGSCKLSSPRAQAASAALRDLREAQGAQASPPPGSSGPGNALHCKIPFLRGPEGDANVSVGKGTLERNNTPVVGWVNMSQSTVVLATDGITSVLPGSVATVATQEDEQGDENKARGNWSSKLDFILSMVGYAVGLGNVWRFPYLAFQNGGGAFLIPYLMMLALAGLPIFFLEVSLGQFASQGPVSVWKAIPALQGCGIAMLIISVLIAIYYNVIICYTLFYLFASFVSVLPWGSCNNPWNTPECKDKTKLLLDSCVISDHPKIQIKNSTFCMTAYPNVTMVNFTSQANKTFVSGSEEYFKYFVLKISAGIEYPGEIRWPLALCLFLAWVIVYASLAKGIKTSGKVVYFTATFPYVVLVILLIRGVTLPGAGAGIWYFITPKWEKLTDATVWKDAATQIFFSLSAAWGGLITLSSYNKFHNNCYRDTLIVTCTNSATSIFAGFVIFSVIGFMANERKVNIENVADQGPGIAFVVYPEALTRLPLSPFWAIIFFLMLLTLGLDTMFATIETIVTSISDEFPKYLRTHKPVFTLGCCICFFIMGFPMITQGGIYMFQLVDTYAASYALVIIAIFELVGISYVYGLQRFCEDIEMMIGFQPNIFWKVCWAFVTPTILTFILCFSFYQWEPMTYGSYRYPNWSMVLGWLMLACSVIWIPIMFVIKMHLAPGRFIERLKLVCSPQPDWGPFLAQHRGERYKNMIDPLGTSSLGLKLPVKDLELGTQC

[1] = tested on: ethanol high preferring male Wistar rats; test: Limited access free choice ethanol (6% v/v) / water drinking in ethanol high preferring rats
Procedure: Male adult Wistar rats weighing 250-300 g (approx. 50 days old) were supplied by Beekay (Stockholm, Sweden). The animals were housed in groups of four at a constant cage temperature (25° C.) and humidity (65° C.). The animals were allowed to adapt for one week to the novel environment before any experiment (Screening for ethanol preference) was performed. They were kept under regular light-dark conditions (light on at 07:00 a.m. and off at 19:00 p.m.) with free access to standard rat feed (Beekay feed) and tap water.
Rats had continuous access to a bottle of ethanol solution in addition to the water bottle. […] The animals were subsequently housed individually in plastic cages. They had continuous access to two bottles containing either tap water or 6% ethanol solution. […] Water and ethanol intake were measured over a 6-7-week period. The amount (g) of ethanol solution consumed, in percent of total fluid intake (g), was used as an index of ethanol preference. Rats were classified as low-(<20% ethanol), medium (20%-60% ethanol), or high-(>60% ethanol) preferring based on their ethanol preference.
Ethanol (AB Svensk sprit) was dissolved (2-4-6% v/v) with regular tap water and presented in regular plastic 300 ml bottles. […] NaCl (0.9%) was used as vehicle.
To adapt to the experimental procedure, approx. 80 days old ethanol high preferring male Wistar rats were limited to drink both ethanol (6% v/v) and water for only three hours/day during one week, so called limited access (limited access) drinking. Thereafter, daily MTHMPNMglycine or vehicle administration started. MTHMPNMglycine or vehicle was injected i.p. and the rats were allowed to rest for approx. 40 min after which they were presented a choice between ethanol and water and allowed to drink for 3 hours. In the first experiment rats were challenged with MTHMPNMglycine (6 mg/kg) or vehicle for two weeks and alcohol and water intake were monitored. The experiment was preceded and ended by a limited access period.
Again the rats were treated with MTHMPNMglycine (6 mg/kg) or vehicle for 13 days. In addition, the rats were thereafter exposed to a two-week period of alcohol deprivation (limited access), during which they were allowed to drink only water 3 hours per day. After the limited access period the rats were again challenged with MTHMPNMglycine or vehicle and re-exposed to ethanol for an additional time-period of 13 days. […] The rats were presented to the water and ethanol (6% v/v) bottles approx. 40 minutes after drug administration.
The ethanol and water consumption data were statistically analysed using Analysis of variance (ANOVA) for repeated measures followed by post hoc analysis by means of Fisher's Protected Least Significant Difference (PLSD) test. Paired t-test was used for dependent comparisons between values obtained at different time-points. All values are expressed as means ±SEM. A probability value (P) less than 0.05 was considered statistically significant.
A new set of male ethanol high-preferring Wistar rats were injected i.p. with either MTHMPNMglycine or vehicle. Approx. 40 minutes after injection all rats were exposed to a free choice between ethanol (6% v/v) and water for 3 hours. First all rats received MTHMPNMglycine (6 mg/kg) or vehicle daily during 13 days.

[2] = oral administration
[3] = tested on: striatal extracellular glycine levels; conditions: 6 mg/kg i.p., rat approx. 500 g; stated as expected; cited from earlier work
[4] = 10 mg/kg, dose-finding pilot experiments

Compound: CCCOc1ccc(C2=CC3(CCN(CC(=O)O)CC3)Oc3ccccc32)cc1F [FPPSBPAA, 4-[3-fluoro-4-propoxyphenyl]-spiro[2H-1-benzopyran-2,4′-piperidine]-1′-acetic acid]
- action on the GlyT2 protein (GlyT2 protein): negligible action

Compound: COc1ccc2c(c1)CC[C@H](CN(C)CC(=O)O)[C@@H]2c1ccccc1 [MTHMPNMglycine]
- duration of behavioral changes [4]: 10 to 15 min
- incidence of behavioral changes [4]: one out of ten
- gross behavior at the doses used in the study (1.5-6 mg/kg i.p., rats): behaviorally unaffected
- mean body weight vs vehicle (during the limited access/experimental time): significant lowered
- total fluid intake vs vehicle ([1]; Experiment 1, 6 mg/kg i.p. daily, day 4-14, group effect p=0.0004, groups also differed on day 1-3): significantly reduced
- ethanol intake vs vehicle ([1]; Experiment 1, 6 mg/kg i.p. daily, day 4-14, group effect p=0.0125): significantly reduced
- ethanol preference vs vehicle ([1]; Experiment 1, 6 mg/kg i.p. daily, day 4-14, group effect p=0.1899): no group effect
- water intake vs vehicle ([1]; Experiment 1, 6 mg/kg i.p. daily, day 4-14, group effect p=0.8713): no difference
- ethanol preference, difference vs vehicle ([1]; Experiment 2, 1.5 mg/kg i.p., day 28-29, group effect p=0.2117): totally abolished
- ethanol intake, difference vs vehicle ([1]; Experiment 2, 1.5 mg/kg i.p., day 28-29, group effect p=0.8614): totally abolished
- ethanol preference vs vehicle ([1]; Experiment 2, 3 mg/kg i.p., day 24-27, group effect p=0.1555): appeared to decrease the difference between the groups
- ethanol intake vs vehicle ([1]; Experiment 2, 3 mg/kg i.p., day 24-27, group effect p=0.2973): difference between the groups was reduced
- treatment time after which the ethanol intake reducing effect was most pronounced ([1]; Experiment 2, 6 mg/kg i.p.): 4 to 6 days
- water intake vs vehicle ([1]; Experiment 2, 6 mg/kg i.p., after alcohol deprivation, day 17-23, group effect p=0.0659): tendency to increase their water intake
- ethanol preference vs vehicle ([1]; Experiment 2, 6 mg/kg i.p., after approx. one week, day 11-16, group effect p<0.0001): significant decrease
- total fluid intake vs vehicle ([1]; Experiment 2, 6 mg/kg i.p., after four days of treatment, day 8-16, group effect p<0.0001): significantly lowered
- ethanol intake vs vehicle ([1]; Experiment 2, 6 mg/kg i.p., after one week of treatment, day 11-17, group effect p=0.0001): even more pronounced
- ethanol intake vs vehicle ([1]; Experiment 2, 6 mg/kg i.p., after two weeks of alcohol deprivation, day 17-23, group effect p=0.0348): remained significantly reduced
- ethanol preference vs vehicle ([1]; Experiment 2, 6 mg/kg i.p., after two weeks of alcohol deprivation, day 17-23, group effect p=0.0572): remained reduced, although not significantly
- total fluid intake after vs before reintroducing ethanol choice (within group) ([1]; Experiment 2, 6 mg/kg i.p., day 14 vs. day 19, paired t-test p<0.0001): significantly increased
- ethanol intake after vs before alcohol deprivation period (within group) ([1]; Experiment 2, 6 mg/kg i.p., day 14 vs. day 19, paired t-test p=0.0135): significantly increased
- water intake after vs before alcohol deprivation period (within group) ([1]; Experiment 2, 6 mg/kg i.p., day 14 vs. day 19, paired t-test p=0.0188): significantly increased their water intake
- ethanol intake vs vehicle ([1]; Experiment 2, 6 mg/kg i.p., first 6 days of treatment, day 4-10, group effect p=0.0008): significantly reduced
- ethanol preference vs vehicle ([1]; Experiment 2, 6 mg/kg i.p., first 6 days, day 4-10, group effect p=0.1300): no significant difference
- water intake vs vehicle ([1]; Experiment 2, 6 mg/kg i.p., first part of the experiment (before alcohol deprivation)): not significantly different
- total fluid intake vs vehicle ([1]; Experiment 2, after the alcohol deprivation (limited access) period): no difference
- oral dose that induced visible behavioral changes [2]: ≥ 13.5 mg/kg
- action on the GlyT2 protein (GlyT2 protein): negligible action
- increase of striatal extracellular glycine levels [3]: 50-80% and 50-70%
